{"source": "patent US8846627B2", "about": "“Method for treatment of malaria” (The Second Military Medical University, priority 2009, dated 2014)", "key": {"[1]": {"tested_on": "Plasmodium berghei (chloroquine sensitive strain)", "test": "In vivo anti-malarial activity, 4-day suppressive test in infected mice", "conditions": "Swiss albino mice; for Day 4 % Suppression / Day 5 % Suppression / Day 6 % Suppression: intragastric", "method": "Tests were performed in a 4-day suppressive standard test using the methods of David, Thurston and Peters (David, A. F., Philip, J. R., Simon, L. C., Reto B., and Solomon N. Antimalarial drug discovery: Efficacy models for compound screening. Nature Reviews. 2004; 3: 509-520). The plasmodium species, that is most widely employed in rodent malaria parasite-Plasmodium berghei (chloroquine sensitive strain), was used to infect Swiss albino mice for a fourday suppressive test. The P. berghei was subsequently maintained in the laboratory by serial blood passage from mouse to mouse. For the study, a donor mouse with a rising parasitemia of 20% was sacrificed and its blood was collected in a slightly heparinized syringe from the auxiliary vessels. The blood was diluted with Trisodium Citrate (TC) medium so that each 0.2 ml contained approximately 107 infected red cells. Each animal received inoculums of about […], which is expected to produce a steadily rising infection in mice.\nMale Swiss albino mice were used. The mice were allowed to acclimatize to the laboratory environment under a controlled temperature of 20° C. and at optimum humidity for at least three days before being subjected to the experiments. All of the mice were divided into groups of six, and infected with malaria parasites.\nThe infection of the recipient mice was initiated by needle passage of the above mentioned parasite preparation, from the donor to healthy test animals via an intraperitoneal route. Therefore, P. berghei infected red blood cells were intraperitoneally injected into the mice from the blood diluted with TC medium so that each 0.2 ml had approximately 106-107 infected red cells (parasite per kg of body weight). Each mouse was infected with single inoculums of 0.2 ml blood.\nThe 4-day procedures were started on Mondays while blood smears for parasitemia were collected on Fridays. The infected mice were weighed, randomly divided into treatment, vehicle and standard drug groups. […] The compounds were administered through intra gastric route using the stomach tube to ensure the safe ingestion of the compounds and the vehicle.\nThin smears of blood films were obtained from the peripheral blood on the tail from each mouse on day four after infection. The smears were placed on microscopic slides, fixed with methanol and stained with Gemsa at pH 7.2, for parasitemia. […] The number of parasitized erythrocytes in each of the 10-50 such fields were counted three times and the average was calculated to give the Parasitemia of each individual animal. Percentage of suppression was calculated by using the following formula. % Suppression=(Parasitemia in negative control−Parasitemia in study group)/Parasitemia in negative control"}, "[2]": {"tested_on": "chloroquine sensitive (D6) strain of P. falciparum", "test": "In vitro anti-malarial activity assay (plasmodial LDH activity), D6 clone", "format": "cell-based", "conditions": "Plasmodium falciparum, D6; 72 h incubation, LDH readout; read-out: P. falciparum (D6 Clone) IC50", "method": "In vitro anti-malarial activity of the representative compounds was determined against chloroquine sensitive (D6) and chloroquine-resistant (W2) strains of P. falciparum.\nThe anti-malarial activity was determined by measuring plasmodial LDH activity as described earlier (Jain, M.; Khan, S. I.; Tekwani, B. L.; Jacob, M. R.; Singh, S.; Singh, P. P.; Jain, R. Synthesis, anti-malarial, antileishmanial, and antimicrobial activities of some 8-quinolinamine analogues. Bioorg. Med. Chem. 2005, 13, 4458-4466). A suspension of red blood cells infected with D6 or W2 strains of P. falciparum (200 with 2% parasitemia and 2% hematocrit in RPMI 1640 medium supplemented with 10% human serum and 60 µg/mL Amikacin) was added to the wells of a 96-well plate containing 10 μL of serially diluted test samples. The plate was flushed with a gas mixture of 90% N2, 5% O2, and 5% CO2 and incubated at 37° C. for 72 h in a modular incubation chamber (Billups-Rothenberg, Calif.). Parasitic LDH activity was determined by using Malstat™ reagent (Flow Inc., Portland, Oreg.) according to the procedure of Makler and Hinrichs (M. T. Makler and D. J. Hinrichs, Measurement of the lactate dehydrogenase activity of Plasmodium falciparum as an assessment of parasitemia. J. Am. J. Trop. Med. Hyg. 1993, 48(2):205-210). Briefly, 20 μl, of the incubation mixture was mixed with 100 μL of the Malstat™ reagent and incubated at room temperature for 30 min Twenty microliters of a 1:1 mixture of NBT/PES (Sigma, St. Louis, Mo.) was then added and the plate was further incubated in the dark for 1 h. The reaction was then stopped by the addition of 100 μL of a 5% acetic acid solution. The plate was read at 650 nm. Artemisinin and chloroquine were included in each assay as the drug controls. IC50 values were computed from the dose-response curves. To determine the selectivity index of anti-malarial activity of compounds, their cytotoxicity in vitro to mammalian cells was also determined. The assay was performed in 96-well tissue culture-treated plates as described earlier (J. Mustafa, S. I. Khan, G. Ma, L. A. Walker and I. A. Khan, Synthesis and Anticancer Activities of Fatty Acid Analogs of Podophyllotoxin. Lipids. 2004, 39(2):167-172). Vero cells (monkey kidney fibroblasts) were seeded to the wells of 96-well plate at a density of 25,000 cells/well and incubated for 24 h. Samples at different concentrations were added and plates were again incubated for 48 h. The number of viable cells was determined by Neutral Red assay. IC50 values were obtained from dose-response curves. Doxorubicin was used as a positive control."}}}
{"molecule": "O=C(/C=C/c1ccc(O)cc1)OC[C@H]1O[C@@H](Oc2c(-c3ccc(O)cc3)oc3cc(O)cc(O)c3c2=O)[C@H](O)[C@@H](O)[C@@H]1O", "note": "[Tiliroside]", "values": [{"measurement": "Day 4 % Suppression", "setting": "[1]; 10 mg/kg daily for 4 days", "result": 39.1, "unit": "%"}, {"measurement": "Day 5 % Suppression", "setting": "[1]; 10 mg/kg daily for 4 days", "result": 51.5, "unit": "%"}, {"measurement": "Day 6 % Suppression", "setting": "[1]; 10 mg/kg daily for 4 days", "result": 35.1, "unit": "%"}, {"measurement": "Day 4 % Suppression", "setting": "[1]; 50 mg/kg daily for 4 days", "result": 56.5, "unit": "%"}, {"measurement": "Day 5 % Suppression", "setting": "[1]; 50 mg/kg daily for 4 days", "result": 64.0, "unit": "%"}, {"measurement": "Day 6 % Suppression", "setting": "[1]; 50 mg/kg daily for 4 days", "result": 54.0, "unit": "%"}, {"measurement": "Day 4 % Suppression", "setting": "[1]; 100 mg/kg daily for 4 days", "result": 34.7, "unit": "%"}, {"measurement": "Day 5 % Suppression", "setting": "[1]; 100 mg/kg daily for 4 days", "result": 39.3, "unit": "%"}, {"measurement": "Day 6 % Suppression", "setting": "[1]; 100 mg/kg daily for 4 days", "result": 21.6, "unit": "%"}, {"measurement": "Day 4 % Suppression", "setting": "[1]; 200 mg/kg daily for 4 days", "result": 21.7, "unit": "%"}, {"measurement": "Day 5 % Suppression", "setting": "[1]; 200 mg/kg daily for 4 days", "result": 30.3, "unit": "%"}, {"measurement": "Day 6 % Suppression", "setting": "[1]; 200 mg/kg daily for 4 days", "result": 18.9, "unit": "%"}, {"measurement": "Day 5 % Suppression", "setting": "[1]; 400 mg/kg daily for 4 days", "result": 9.0, "unit": "%"}, {"measurement": "maximum suppression ratio", "setting": "[1]; maximum over doses and days", "result": 60, "unit": "%"}, {"measurement": "IC50", "setting": "[2]", "result": 123, "unit": "µM"}]}
